The values that follow come from patent US20090253634A1, “Methods and Compositions for the Treatment of Gastrointestinal Disorders” (MICROBIA, INC., priority 2005, published 2009).

One data set relates to carboxypeptidase A. The experiment in a line: in vitro proteolytic stability: carboxypeptidase A. As to the method: The stability of SEQ ID NO:3 in the presence of several mammalian digestive enzymes was determined. SEQ ID NO:3 was exposed to a variety of in vitro conditions including digestive enzymes and low ph environments designed to simulate gastric fluid. SEQ ID NO:3 was incubated with chymotrypsin, trypsin, pepsin, aminopeptidase, carboxypeptidase A, and simulated gastric fluid (sgf) at ph 1.0. Samples were collected at 0, 3, and 24 h for all conditions except pepsin digestion and the SGF. For the latter two conditions, samples were obtained at 0, 1, and 3 h. Negative control samples were prepared for initial and final time points. A separate, positive activity control was run in parallel to SEQ ID NO:3. All samples were analyzed by LC/MS
Five (5) μL of a 40 μg/mL carboxypeptidase inhibitor (carboxypeptidase inhibitor from potato tuber (Sigma-Aldrich, C0279) stock was added to each control sample (0 and 24 h), for a final concentration of 0.4 μg/mL. All control and test (0, 3 and 24 h) samples were incubated at 37° C. for 5 min. Twenty (20) μL of a 0.01 mg/mL carboxypeptidase A (Carboxypeptidase A from human pancreas; Sigma-Aldrich, C5358) stock was added to each sample. The samples were returned to the 37° C. water bath. The reaction was quenched with 5 μL of a 40 μg/mL carboxypeptidase inhibitor at the proper time point. No extra carboxypeptidase inhibitor was added to the control samples since there was already inhibitor present. Samples were subsequently flash frozen in liquid nitrogen, and stored at −80° C. until analysis. Upon analysis, samples were thawed and transferred to a 1 mL 96-well deep microtiter plate. […] These standards were used to generate a standard curve for quantification of samples. When necessary, the standard curves were also used to calculate the concentration of the corresponding digestion product. Ten (10) μL injections were made of each sample and standard. […] For the SEQ.
To further study the SEQ ID NO:3 carboxypeptidase A digestion product, samples of 0.01 mg/mL SEQ ID NO:3 were prepared in the carboxypeptidase A reaction buffer at a total volume of 500 μL in 2 mL eppendorf tubes. Triplicate samples were prepared for the following time points: 0, 15, 30, 60, 120, 180 and 240 min. The samples were incubated at 37° C. for 5 min. Twenty (20) μL of a 0.01 mg/mL carboxypeptidase A stock were added to each sample and returned to the 37° C. water bath. The reactions were quenched with 5 μL of a 40 μg/mL carboxypeptidase inhibitor at the proper time points. Samples were subsequently flash frozen in liquid nitrogen, and stored at −80° C. until analysis. Upon analysis, samples were thawed and transferred to a 1 mL 96-well plate. Standards of SEQ ID NO:3 were prepared in carboxypeptidase A reaction buffer at 0.625, 1.25, 2.50, 5.00, and 10.00 μg/mL concentrations. These standards were used to generate a standard curve for quantification of samples. When necessary, the standard curves were also used to calculate the concentration of the corresponding digestion product. Ten (10) μL injections were made of each sample and standard. If the formation of a digestion product was evident, then a spectral analysis was used to determine the mass of the digestion product, and predict its possible identity.

For another data set, the system named is intestinal secretion. The experiment in a line: suckling mouse model of intestinal secretion (SuMi assay). It counts as in vivo, suckling mice. Particulars: dose response; wild-type ST purchased from TDT; FIG. 5a, 5b. On the procedure: In this model a test compound is administered to suckling mice that are between 7 and 9 days old. After the mice are sacrificed, the gastrointestinal tract from the stomach to the cecum is dissected (“guts”). The remains (“carcass”) as well as the guts are weighed and the ratio of guts to carcass weight is calculated. If the ratio is above 0.09, one can conclude that the test compound increases intestinal secretion. […] The effect of Zelnorm® was also studied.

A further data set addresses T1, chymotrypsin (Bos taurus, UniProt P00766).
T1 construct: purchased Sigma-Aldrich C6423; host or cells: bovine pancreas
The data set is described as follows: in vitro proteolytic stability: chymotrypsin. It counts as in vitro ADME, bovine. To be noted: 37° C., up to 24 h. On the procedure: All samples were analyzed by LC/MS
Samples were returned to the 37° C. water bath.

In data set [1] the test system is intestinal transit after abdominal surgery. The experiment in a line: rat model of postoperative ileus. It is filed as in vivo, CD rats. Particulars: oral 10 μg/kg, 20 minutes after charcoal meal. On the procedure: Female CD rats were used to test the effect of SEQ ID NO:3 on delayed transit induced by abdominal surgery and manual manipulation of the small intestine. Groups of at least nine rats underwent abdominal surgery under isoflurane anesthesia. Surgery consisted of laparotomy and 5 minutes of gentle manual intestinal massage. Following recovery from anesthesia, rats were dosed orally with either 10 μg/kg SEQ ID NO:3 or vehicle (20 mM Tris) in a volume of 300 μl. 1 hour after dosing, intestinal transit rate was measured. Animals were again dosed with 300 μl of the test article followed immediately by 500 μl of a charcoal meal (10% charcoal, 10% gum arabic in water). To calculate the distance of the small intestine traveled by the charcoal front, after 20 minutes, the total length of the intestine as well as the distance traveled from the stomach to the charcoal front were measured for each animal. Animals dosed with 10 μg/kg SEQ ID NO:3 experienced an increase in transit following abdominal surgery compared to animals dosed with vehicle alone (FIG. 16). Charcoal transit in SEQ ID NO:3 dosed animals was measured at 37.3+3.0% (mean±SEM) of the small intestine compared with vehicle at 24.7+1.4% (mean±SEM) of the small intestine.

The structures appear in SMILES notation. Bridge positions count the residues as written; N and C are the ends. Peptide text beside a SMILES is read from it.

Turning to `C[C@@H]1NC(=O)[C@@H]2CCCN2C(=O)[C@H](CC(N)=O)NC(=O)[C@@H]2CSSC[C@H](N)C(=O)N[C@H]3CSSC[C@H](NC1=O)C(=O)N[C@@H]([C@@H](C)O)C(=O)NCC(=O)N[C@H](C(=O)O)CSSC[C@H](NC(=O)[C@H](Cc1ccc(O)cc1)NC(=O)[C@H](CCC(=O)O)NC3=O)C(=O)N2` [SEQ ID NO:6] (H-CCEYCCNPACTGC-OH; disulfide 1-6, 2-10, 5-13), the “average concentration of SEQ ID NO:6 (digestion product of SEQ ID NO:3)” value in the data set with carboxypeptidase A (T0) is on record as 108 (+/−2) nM.

As for `C[C@@H]1NC(=O)[C@@H]2CCCN2C(=O)[C@H](CC(N)=O)NC(=O)[C@@H]2CSSC[C@H](N)C(=O)N[C@H]3CSSC[C@H](NC1=O)C(=O)N[C@@H]([C@@H](C)O)C(=O)NCC(=O)N[C@H](C(=O)N[C@@H](Cc1ccc(O)cc1)C(=O)O)CSSC[C@H](NC(=O)[C@H](Cc1ccc(O)cc1)NC(=O)[C@H](CCC(=O)O)NC3=O)C(=O)N2` [SEQ ID NO:3] (H-CCEYCCNPACTGCY-OH; disulfide 1-6, 2-10, 5-13; N-terminus and C-terminus assumed), the “intestinal secretion (guts to carcass weight ratio)” value in the data set on intestinal secretion is reported as “increase intestinal secretion”. The “Cleavage of SEQ ID NO: 3 by proteolytic substance” value is “not detectable” on chymotrypsin and “Yes” in the data set on carboxypeptidase A (Carboxypetidase A, 37° C., up to 24 h). Besides, the “Charcoal transit, of the small intestine (mean±SEM)” value in data set [1] was determined as 37.3 ± 3.0%. Besides, the “SEQ ID NO:3 average concentration” value in the data set on carboxypeptidase A (T0, carboxypeptidase A time course) was 5115 (+/−121) nM; in the data set with carboxypeptidase A (T240 (240 min)), 4438 (+/−188) nM. Also, in the data set with carboxypeptidase A (T24 h samples), the “average calculated SEQ ID NO:3 product concentration” value is 1.3 (+/−0.04) μg/mL. In addition, the “SEQ ID NO:3 calculated concentration” value in the data set on carboxypeptidase A (all samples (0, 3, 24 h and controls)) is 8.4 (+/−1.2) μg/mL. The entries for the “calculated concentration of the SEQ ID NO:3 products” value with carboxypeptidase A (time 0 control (with inhibitor)) and with carboxypeptidase A (time 0 samples) were 0.8 (+/−0.02) μg/mL and 0.8 (+/−0.01) μg/mL, respectively.
